Experimental data from BindingDB's records for doi:10.1021/cb4002552 (University of California, 2013).
pKd: −log10 of the molar value.

Molecular target: Neutrophil gelatinase-associated lipocalin (Homo sapiens, UniProt P80188)
Assay: Fluorescence quenching titrations
Conditions: pH 7.4
Protocol: The ligand solutions (10uM siderophore, TBS with 5% (v/v) DMSO, pH 7.4) were prepared from 4mM stock solution in DMSO. The protein solution was prepared as previously reported. Small amounts of ligand solution were mixed with the protein solution and equilibrated for at least 4 min before fluorescence measurement. The data was fit to a one-to-one binding model with two parameters, Kd and fluorescence response, using the program DYNAFIT.

Sequence of Neutrophil gelatinase-associated lipocalin (P80188 whole entry): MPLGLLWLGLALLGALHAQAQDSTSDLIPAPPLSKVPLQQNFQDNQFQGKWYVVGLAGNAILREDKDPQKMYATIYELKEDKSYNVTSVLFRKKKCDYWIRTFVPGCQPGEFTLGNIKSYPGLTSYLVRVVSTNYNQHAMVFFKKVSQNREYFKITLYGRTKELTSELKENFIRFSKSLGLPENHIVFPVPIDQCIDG

Structure (SMILES): C[C@@H](O)[C@H](NC(=O)c1cccc(O)c1O)C(=O)N(CCCNC(=O)c1cccc(O)c1O)CCCNC(=O)c1cccc(O)c1O [Fluvibactin A]
- pKd: 7.92

Structure (SMILES): C[C@@H](O)[C@H](NC(=O)c1cccc(O)c1O)C(=O)NCCCN(CCCNC(=O)c1cccc(O)c1O)C(=O)[C@@H](NC(=O)c1cccc(O)c1O)[C@@H](C)O [Vibriobactin A]
- pKd: 7.74

Structure (SMILES): C[C@H]1OC(c2cccc(O)c2O)=N[C@@H]1C(=O)N(CCCNC(=O)c1cccc(O)c1O)CCCNC(=O)c1cccc(O)c1O [Fluvibactin]
- pKd: 7.47
